# How the values were obtained:
# DGAT2 = assay: Inhibitory activity on the target gene DGAT2 in non-naive Cynomolgus macaque (Example 10, liver biopsy qPCR); type: in vivo
# Method: The in-vivo experimental designs for subcutaneous injection in non-naive Cynomolgus macaque, the administration and the sample collection method were shown in the table below.
# The day of administration to non-naive Cynomolgus macaque was defined as day 1, the day before it was day 0, the day after it was day 2, and so on. Each group had 2 animals. On days 1, 4, 8, 15, 22, 29, 36, 43, 50, and 57, the animals in Groups 1 and 2 were injected with the solvent or 4 mg/kg (0.5mL/kg) of the positive reference compound. On days 1 and 29, the animals in Groups 3 to 7 were injected subcutaneously with 0.5 mL/kg of the test compound.
# On day 0 (0 h) before administration by SC, and days 7, 15, 28, 57, and 99 after administration, the liver sample was collected. Collection method: The animals was fasted for 12-16 hrs before sample collection. Collection of liver biopsy tissue: The collection process would be operated and recorded according to the SOP of the research institution. The location of the liver was determined by B ultrasound scan, the right liver was mainly used, and the gallbladder and major blood vessels were avoided. The biopsy needle was inserted under the guidance of the B-ultrasound probe. Guided by the image on the B-ultrasound screen, the needle entered the liver away from the gallbladder and major blood vessels, and the materials were sampled by puncture. After biopsy, the biopsy needle was withdrawn and the samples were collected. The obtained samples were immediately immersed in PBS with RNAlater®, and allowed to stand overnight at 4°C. Then the residual liquid was sucked off, and the remainder was stored at -80°C or below until it was transported in the presence of dry ice and detected.
# Trizol was homogenized by Qiagen Tissue Lyser II at 26 Hz for 2 min and lyzed at room temperature for 5 min. 1 mL of the supernatant was taken, added to 200 uL of chloroform, shaken for 15 s, allowed to stand for 3 min, and centrifuged. The supernatant was collected, added with an equal volume of isopropanol, and stood overnight at -20°C for precipitation. The precipitate was washed twice with 70%, and dissolved in water without RNase. The concentration of the RNA sample was determined by Nanodrop ONE and diluted to 200 ng/µL with water without RNase for reverse transcription.
# The experimental steps of reverse transcription could be made reference to the instruction of HiScript® III RT SuperMix for qPCR (+gDNA wiper). Briefly, a gDNA removal mixture was prepared according to the table below. A mixture (11 µL/sample) of 4 x gDNA wiper Mix and RNase-Free ddH2O and 1000 ng RNA sample (5 µL RNA sample with a concentration of 200 ng/µL) were added to a 96-well PCR reaction plate, incubated at 42°C for 2 min, and cooled on ice. 4 µL 5 x HiScript III qRT SuperMix and the DNA removed product from the previous step were added to a 96-well PCR reaction plate for reverse transcription. Reaction conditions: 37°C for 15 min; and 85°C for 5 sec. The cDNA was stored at 4°C for further analysis.
# The method for detecting the expression levels of DGAT2 and GAPDH genes in the liver of Cynomolgus macaque by quantitative PCR was briefly described as follows: As shown in the table below, a qPCR reaction mixture was prepared, and 2 µL of a cDNA sample diluted 2 times with RNase-free water was added for PCR reaction. Reaction conditions: 95°C for 10 min; and 40 cycles of 95°C for 15 sec, and 60°C for 1 min.
# All values were normalized to the average of the group on day 0.
# human DGAT2 = assay: Non-alcoholic steatohepatitis induced by a western diet in human DGAT2 carrying mice (Example 9, liver histology scores); type: in vivo, mouse; details: for Ballooning degeneration / Fibrosis score / Grade of steatosis / Lobular inflammation / NAFLD score: B6-hDGAT2 mice, western diet
# Method: Humanized mice with B6-hDGAT2-TG target and non-alcoholic steatohepatitis model were provided by GemPharmatech LLC. On D0, subcutaneous administration and induction and feeding with western diet were started. On D29, the second injection was performed. Effective period: 8 weeks. 4 mice in one group were sacrificed at 4-week endpoint, and 4 mice in the other group were sacrificed at 8-week endpoint.
# Plasma was collected every week to detect the levels of TG, Chol, HDL-C, LDL-C, ALT, and AST, and the liver was stained with HE and NASH score were obtained at the endpoint.
# [1] = 3mpk subcutaneous on days 1 and 29, normalized to day 0
# [2] = 10mpk subcutaneous on days 1 and 29, normalized to day 0
# [3] = 3mpk, D0 and D29, 8-week endpoint
# [4] = 3mpk, 4-week endpoint, mean ± SEM
# [5] = 6mpk, D0 and D29, 8-week endpoint
# [6] = 6mpk, 4-week endpoint, mean ± SEM
substance,measurement,setting,value
dS319: sense (invAb)*acaccauaGfAfCfuauuugcuua[L96]; anti-sense Vpu*Af*a*GfcAfaauagUfcUfaUfgGfuGf* u,"Average inhibition rate, % (D28)",DGAT2; [1],86.6%
same,"Average inhibition rate, % (D56)",DGAT2; [1],91.1%
same,"Average inhibition rate, % (D99)",DGAT2; [1],72.2%
same,"Average inhibition rate, % (D28)",DGAT2; [2],96.0%
same,"Average inhibition rate, % (D56)",DGAT2; [2],97.9%
same,"Average inhibition rate, % (D99)",DGAT2; [2],89.1%
same,Ballooning degeneration,human DGAT2; [3],2.0±0.0
same,Fibrosis score,human DGAT2; [3],0.9±0.1
same,Grade of steatosis,human DGAT2; [3],1.0±0.0
same,Lobular inflammation,human DGAT2; [3],1.8±0.2
same,NAFLD score,human DGAT2; [3],4.8±0.2
same,Ballooning degeneration,human DGAT2; [4],2.0±0.0
same,Fibrosis score,human DGAT2; [4],0.5±0.1
same,Grade of steatosis,human DGAT2; [4],0.7±0.1
same,Lobular inflammation,human DGAT2; [4],2.2±0.1
same,NAFLD score,human DGAT2; [4],4.9±0.2
same,Ballooning degeneration,human DGAT2; [5],1.3±0.1
same,Fibrosis score,human DGAT2; [5],0.8±0.2
same,Grade of steatosis,human DGAT2; [5],1.1±0.1
same,Lobular inflammation,human DGAT2; [5],2.0±0.1
same,NAFLD score,human DGAT2; [5],4.3±0.0
same,Ballooning degeneration,human DGAT2; [6],1.3±0.1
same,Fibrosis score,human DGAT2; [6],0.4±0.1
same,Grade of steatosis,human DGAT2; [6],0.5±0.2
same,Lobular inflammation,human DGAT2; [6],1.6±0.2
same,NAFLD score,human DGAT2; [6],3.4±0.2
same,improvement on non-alcoholic steatohepatitis (NASH) by NAFLD activity score,"human DGAT2; FIG. 1 legend, hDGAT2 combined with western diet, over 4 weeks",improvement
same,improvement on fibrosis in non-alcoholic steatohepatitis,"human DGAT2; FIG. 2 legend, hDGAT2 combined with western diet, over 4 weeks",improvement

# Reference: patent EP4722365A1, “DOUBLE-STRANDED NUCLEOTIDE COMPOUND FOR METABOLIC DISEASES AND USE THEREOF” (Visirna Therapeutics (Suzhou) Co., Ltd., priority 2023, dated 2024)
